Earlier results on two compounds are cited in patent EP4759311A1, “TRPM8 INHIBITORS FOR USE IN THE PREVENTION OR TREATMENT OF JOINT DAMAGE, JOINT DEGENERATION AND/OR JOINT INFLAMMATION CAUSED BY OSTEOARTHRITIS” (Dompé farmaceutici SpA, priority 2024, dated 2026).

What is called IC50 is the concentration that gives 50% inhibition.

The target of the series is TRPM8 (Homo sapiens, UniProt Q7Z2W7). To be noted: TRPM8 inhibitor; no method given.
Sequence of TRPM8 (Q7Z2W7 whole entry, species assumed): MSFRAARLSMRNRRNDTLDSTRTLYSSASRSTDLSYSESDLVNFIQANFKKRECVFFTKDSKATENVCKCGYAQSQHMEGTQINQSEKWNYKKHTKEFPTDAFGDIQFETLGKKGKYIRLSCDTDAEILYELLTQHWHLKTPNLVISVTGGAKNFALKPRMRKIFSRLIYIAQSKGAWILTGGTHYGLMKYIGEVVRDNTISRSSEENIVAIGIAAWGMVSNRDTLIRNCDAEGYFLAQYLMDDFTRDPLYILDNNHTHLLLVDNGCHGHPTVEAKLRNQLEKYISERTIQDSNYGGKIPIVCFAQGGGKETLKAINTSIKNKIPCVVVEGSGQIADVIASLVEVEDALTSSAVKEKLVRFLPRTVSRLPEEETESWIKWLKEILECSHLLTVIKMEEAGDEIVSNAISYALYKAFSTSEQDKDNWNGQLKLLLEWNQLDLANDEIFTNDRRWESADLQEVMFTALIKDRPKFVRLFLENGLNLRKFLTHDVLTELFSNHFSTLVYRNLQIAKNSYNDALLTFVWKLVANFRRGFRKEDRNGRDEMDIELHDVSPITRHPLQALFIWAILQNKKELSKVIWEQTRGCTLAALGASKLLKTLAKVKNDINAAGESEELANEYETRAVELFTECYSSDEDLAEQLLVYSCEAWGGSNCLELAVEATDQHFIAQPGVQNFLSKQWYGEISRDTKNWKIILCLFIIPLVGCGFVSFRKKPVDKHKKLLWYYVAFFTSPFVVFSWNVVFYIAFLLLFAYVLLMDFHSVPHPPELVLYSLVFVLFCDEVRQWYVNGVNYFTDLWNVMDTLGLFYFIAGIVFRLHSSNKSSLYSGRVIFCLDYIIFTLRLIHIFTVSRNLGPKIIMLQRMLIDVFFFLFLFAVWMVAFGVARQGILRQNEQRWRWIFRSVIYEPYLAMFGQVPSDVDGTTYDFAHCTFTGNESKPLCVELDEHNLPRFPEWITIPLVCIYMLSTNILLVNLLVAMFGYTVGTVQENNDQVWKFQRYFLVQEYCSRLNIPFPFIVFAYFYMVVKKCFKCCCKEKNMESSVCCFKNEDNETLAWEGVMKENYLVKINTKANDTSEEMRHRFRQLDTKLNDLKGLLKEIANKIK

With `COC(=O)[C@H](Cc1c[nH]c2ccccc12)N(Cc1ccccc1)Cc1ccccc1` [TRPM8 antagonist 2, N,N-Bis(phenylmethyl)-L-tryptophan methyl ester], the IC50 is 0.2 nM.
Turning to `O=C(O)c1ccc(S(=O)(=O)N(Cc2ccc(OC(F)(F)F)cc2)c2ncc(C(F)(F)F)cc2Cl)cc1` [RQ-00203078, 4-[[[3-Chloro-5-(trifluoromethyl)-2-pyridinyl][[4-(trifluoromethoxy)phenyl]methyl]amino]sulfonyl]benzoic acid], the 50% inhibitory concentration (IC50) was 5.3 nM.
